Measured values: ChEMBL document CHEMBL1147532, “The design, preparation and SAR of novel small molecule sodium (Na(+)) channel blockers” (Bioorg Med Chem Lett, 2004)
pKi: −log10 of the molar value.

Key:
[1] = target: T1, CYP2D6 (Homo sapiens, UniProt P10635); test: (§1) Inhibition of cytochrome P450 2D6 at 2 uM
[2] = target: CYP3A4 (Homo sapiens, UniProt P08684); test: Inhibition of cytochrome P450 3A4 was determined at 2 uM
[3] = target: T2, Sodium channel alpha subunits; brain (Types I, II, III) (Rattus norvegicus, UniProt P04775+P04774+P08104); test: In vitro inhibition of [3H]batrachotoxin binding to neurotoxin site 2 of sodium (Na+) channel in rat cerebral cortex membrane; format: cell membranes
[4] = target: Cytochrome P450 2D6 (Homo sapiens, UniProt P10635); test: Predictive competitive inhibition of cytochrome P450 2D6 was determined in silico
[5] = target: T1, CYP2D6; test: as §1; format: ADME
[6] = species: Rattus norvegicus; test: Inhibition of tetrodotoxin (TTX) sensitive current by the compound was determined at 10 uM using whole-cell patch clamp tests in cultured rat dorsal root ganglion (DRG); format: functional
[7] = species: Rattus norvegicus; test: Inhibition of tetrodotoxin (TTX) resistant current by the compound was determined at 10 uM using whole-cell patch clamp tests in cultured rat dorsal root ganglion (DRG); format: functional
[8] = target: T2, Sodium channel alpha subunits; brain (Types I, II, III); test: Inhibitory concentration against [3H]batrachotoxin binding to neurotoxin site 2 of sodium (Na+) channel in vitro in rat cerebral cortex membrane at 1 uM; format: cell membranes

Cytochrome P450 2D6, sequence (P10635 whole entry): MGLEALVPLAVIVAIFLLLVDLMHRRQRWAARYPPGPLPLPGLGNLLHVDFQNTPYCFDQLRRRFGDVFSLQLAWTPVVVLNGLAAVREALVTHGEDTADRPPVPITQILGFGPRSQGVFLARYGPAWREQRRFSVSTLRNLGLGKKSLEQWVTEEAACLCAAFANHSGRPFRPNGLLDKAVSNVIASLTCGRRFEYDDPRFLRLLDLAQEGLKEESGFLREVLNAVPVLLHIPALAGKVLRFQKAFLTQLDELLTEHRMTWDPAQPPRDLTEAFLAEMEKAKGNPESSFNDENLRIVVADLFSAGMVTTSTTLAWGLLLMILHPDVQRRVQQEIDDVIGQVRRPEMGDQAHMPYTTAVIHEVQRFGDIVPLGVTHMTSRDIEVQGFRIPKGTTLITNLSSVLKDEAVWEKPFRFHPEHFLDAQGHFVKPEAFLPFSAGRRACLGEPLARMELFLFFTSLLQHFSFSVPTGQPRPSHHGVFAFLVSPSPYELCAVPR
T1 sequence (P10635 whole entry): as above
CYP3A4, sequence (P08684 whole entry): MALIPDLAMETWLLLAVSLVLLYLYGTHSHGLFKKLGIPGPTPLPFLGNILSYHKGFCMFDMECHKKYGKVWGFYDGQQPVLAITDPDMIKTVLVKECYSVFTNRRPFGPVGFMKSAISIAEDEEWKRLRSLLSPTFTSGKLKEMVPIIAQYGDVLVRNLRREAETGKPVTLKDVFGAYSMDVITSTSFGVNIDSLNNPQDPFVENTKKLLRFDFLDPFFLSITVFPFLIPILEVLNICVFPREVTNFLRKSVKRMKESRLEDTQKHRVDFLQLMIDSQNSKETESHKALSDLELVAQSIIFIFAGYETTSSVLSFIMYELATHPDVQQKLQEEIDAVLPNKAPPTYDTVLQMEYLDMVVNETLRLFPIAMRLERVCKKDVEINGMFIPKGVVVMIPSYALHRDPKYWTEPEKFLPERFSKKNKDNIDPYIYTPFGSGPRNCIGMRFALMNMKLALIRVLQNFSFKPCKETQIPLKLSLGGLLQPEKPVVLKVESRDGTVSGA

`COc1ccc(CNC(=O)C(c2ccc(C(F)(F)F)cc2)N2CCN(CC(O)COc3c(C)cccc3C)CC2)cc1` (stereo unspecified) gave an inhibition at 2 µM [1] of 8%, an inhibition at 2 µM [2] of 62% and an IC50 [3] of 355 nM. It also gave a pKi [4] of 5.70.

Compound `COc1ccc(OCC(O)CN2CCN(C(C(=O)NCc3ccccc3)c3ccc(C)cc3)CC2)cc1` (stereo unspecified) has an inhibition at 2 µM [1] of 10%, an inhibition at 2 µM [2] of 65% and an IC50 [3] of 579 nM. It also gave a pKi [4] of 5.40.

`Cc1cccc(C)c1OCC(O)CN1CCN(C(C(=O)NCc2ccccc2)c2ccc(F)cc2)CC1` (stereo unspecified) gave an inhibition at 2 µM [1] of 20%, an inhibition at 2 µM [2] of 38% and an IC50 [3] of 149 nM. For the same compound, the pKi [4] was 5.70.

With `C=CCOCC(O)CN1CCN(C(c2ccccc2)c2ccc(Cl)cc2)CC1` (stereo unspecified) the inhibition at 2 µM [5] was 87%, the IC50 [3] was 401 nM and the Inhibition [6] was 20%. For the same compound, the pKi [4] was 7.00.

In the case of `COc1ccc(OCC(O)CN2CCN(C(C(=O)NCc3ccccc3)c3ccc(C(F)(F)F)cc3)CC2)cc1` (stereo unspecified), the inhibition at 2 µM [1] was 13%, the inhibition at 2 µM [2] was 68% and the IC50 [3] was 429 nM. For the same compound, the pKi [4] was 5.70.

Compound `OC(COc1ccccc1)CN1CCN(C(c2ccccc2)c2ccc(C(F)(F)F)cc2)CC1` (stereo unspecified) has an inhibition at 2 µM [1] of 87%, an IC50 [3] of 893 nM and an Inhibition [7] of 57%. For the same compound, the Inhibition [6] was 61% and the pKi [4] was 6.22.

Compound `O=C(NCC(c1ccccc1)N1CCN(CC(O)COc2ccccc2)CC1)c1ccc(F)cc1` (stereo unspecified) has an inhibition at 2 µM [1] of 9%, an inhibition at 2 µM [2] of 61% and an IC50 [3] of 363 nM. For the same compound, the pKi [4] was 5.15.

`Cc1ccc(C(C(=O)NCc2ccccc2)N2CCN(CC(O)COc3c(C)cccc3C)CC2)cc1` (stereo unspecified) was tested, and the inhibition at 2 µM [1] was 26%, the inhibition at 2 µM [2] was 44% and the IC50 [3] was 325 nM. It also gave a pKi [4] of 5.70.

Work on `COc1ccc(CNC(=O)C(c2ccc(C(F)(F)F)cc2)N2CCN(CC(O)COc3ccc(OC)cc3)CC2)cc1` (stereo unspecified) yielded an inhibition at 2 µM [1] of 0%, an inhibition at 2 µM [2] of 88% and an IC50 [3] of 359 nM. For the same compound, the pKi [4] was 5.40.

In the case of `COc1ccc(OCC(O)CN2CCN(C(C(=O)NCc3ccccc3)c3ccc(F)cc3)CC2)cc1` (stereo unspecified), the inhibition at 2 µM [1] was 0%, the inhibition at 2 µM [2] was 49% and the IC50 [3] was 254 nM. It also gave a pKi [4] of 5.30.

`COc1ccc(C(=O)NCC(c2ccccc2)N2CCN(CC(O)COc3ccc(Cl)cc3)CC2)cc1` (stereo unspecified) showed an inhibition at 2 µM [1] of 47%, an inhibition at 2 µM [2] of 96% and an IC50 [3] of 538 nM. For the same compound, the pKi [4] was 5.40.

`COc1ccc(CNC(=O)C(c2ccc(OC)cc2)N2CCN(CC(O)COc3c(C)cccc3C)CC2)cc1` (stereo unspecified) was tested, and the inhibition at 2 µM [1] was 9%, the inhibition at 2 µM [2] was 74% and the IC50 [3] was 571 nM. For the same compound, the pKi [4] was 5.30.

`COc1ccc(OCC(O)CN2CCN(C(CNC(=O)c3ccc(F)cc3)c3ccccc3)CC2)cc1` (stereo unspecified) was tested, and the inhibition at 2 µM [1] was 33%, the inhibition at 2 µM [2] was 22% and the IC50 [3] was 531 nM. For the same compound, the pKi [4] was 5.52.

`COc1ccc(CNC(=O)C(c2ccc(F)cc2)N2CCN(CC(O)COc3ccc(OC)cc3)CC2)cc1` (stereo unspecified) gave an inhibition at 2 µM [1] of 10%, an inhibition at 2 µM [2] of 81% and an IC50 [3] of 214 nM. The pKi [4] was 5.15.

`COc1ccc(OC)c(S(=O)(=O)NCC(c2ccccc2)N2CCN(CC(O)COc3ccc(Br)cc3)CC2)c1` (stereo unspecified) gave an inhibition at 2 µM [1] of 25%, an inhibition at 2 µM [2] of 100% and an IC50 [3] of 522 nM. It also gave a pKi [4] of 4.52.

For `COc1ccc(OCC(O)CN2CCN(C(CNC(=O)c3ccccc3OC)c3ccccc3)CC2)cc1` (stereo unspecified), the inhibition at 2 µM [1] was 9%, the inhibition at 2 µM [2] was 93% and the IC50 [3] was 721 nM. The pKi [4] was 5.10.

For `COc1ccc(CNC(=O)C(c2ccc(C)cc2)N2CCN(CC(O)COc3c(C)cccc3C)CC2)cc1` (stereo unspecified), the inhibition at 2 µM [1] was 14%, the inhibition at 2 µM [2] was 74% and the IC50 [3] was 351 nM. It also gave a pKi [4] of 5.52.

Work on `O=S(=O)(NCC(c1ccc(C(F)(F)F)cc1)N1CCN(CC(O)COc2ccc(F)cc2)CC1)c1ccccc1Cl` (stereo unspecified) yielded an inhibition at 2 µM [1] of 56%, an inhibition at 2 µM [2] of 92% and an IC50 [8] of 76 nM. It also gave a pKi [4] of 5.00.

With `COc1ccc(OCC(O)CN2CCN(C(CNC(=O)c3ccc(OC)cc3)c3ccccc3)CC2)cc1` (stereo unspecified) the inhibition at 2 µM [1] was 12%, the inhibition at 2 µM [2] was 95% and the IC50 [3] was 871 nM. It also gave a pKi [4] of 5.10.

With `Cc1cccc(S(=O)(=O)NCC(c2ccc(C(F)(F)F)cc2)N2CCN(CC(O)COc3ccc(Br)cc3)CC2)c1` (stereo unspecified) the inhibition at 2 µM [1] was 27%, the inhibition at 2 µM [2] was 76% and the IC50 [8] was 95 nM. It also gave a pKi [4] of 5.00.
